Data on 15 compounds can be found in article PMC8510480, “Searching Anti-Zika Virus Activity in 1H-1,2,3-Triazole Based Compounds” (Molecules, 2021).

Each structure is given as a SMILES string. “And” between values parts separate entries of the source, which are not always exact repeats. Equal entries are not always repeated. Where two headings read alike, the source gives them in different places. Bounds are passed on as bounds.

The subject of data set [1] is macrophages (peritoneal and J774A.1) and fibroblast cells. Details: method as in PMID 33339081. Conditions: ref [28]; cited from earlier work.
Data set [2] can be described thus: Cytotoxicity test with MTT method in Vero cells. The format is cell-based, African green monkey. Conditions: African green monkey, 5 days, read-out: CC50 (50% cytotoxic concentration). The method, then:
(§1) The cytotoxicity of compounds 1–7 to Vero cells, an epithelial cell line derived from the kidney of an African green monkey, was tested using the 3-(4,5-dimethylthiazol-2-yl)-2,5-diphenyltetrazolium bromide (MTT) method. […] Based on CC20 values, which was the maximum concentration used for antiviral screening, 3b compound was the least toxic with a value of 527.2 µM. Compounds 2a and 2b were the most cytotoxic with values of 8.87 µM and 9.89 µM, respectively. […] The results from compounds 3a, 3b and 4a, 4b ranged from 40.69 to 527.20 µM. […] The presence of phthalimide group or sugar increases the values of CC20 and CC50 (Table 2 and Supplementary Material: Figure S1).
(§2) 96-well plates with 1 × 10^4 cell/well were used in this assay and prepared 24 h previously. The compounds were diluted in a 2:1 ratio so that a maximum of 0.8% DMSO was used. The concentrations used were 800, 400, 200, 100, 50, 25 and 12.5 µM. Dilutions were added to the wells in triplicate and incubated at 37 °C and 5% CO2 atmosphere. After 5 days, the wells were emptied and a 50 µL of 1 mg/mL MTT (3-(4,5-dimethylthiazol-2-yl)-2,5-diphenyltetrazolium bromide) (Sigma-Aldrich) solution was added, and the cells were incubated for 3–4 h for formation of formazan crystals through the mitochondria of viable cells. Then, medium was removed and 100 µL DMSO was added to the wells to solubilize the formazan crystals. With the aid of an incubator Tecnal TE-420 (Tecnal Equipamentos Científicos, Piracicaba, São Paulo, Brazil), the plates were homogenized at 120 RPM at 37 °C and the optical densities were read at 570 nm on a spectrophotometer BioTekTM ELx800TM (BioTek Instruments, Winooski, VT, USA).
(§3) The determination of the CC20 and CC50 values was obtained through the linear regression analysis of the XY graph generated by the values of the concentrations used in the test and the triplicate values of the viability. In the post-infection and pre-treatment tests, ANOVA and Dunnett tests were used, considering […] as the minimum significance value. All tests were performed in GraphPad Prism v.6.0 program (GraphPad Software, Inc., San Diego, CA, USA).

Data set [3] has as its system Vero cells. The data set can be described thus: Cytotoxicity test with MTT method in Vero cells. The following applies: for CC20 (20% cytotoxic concentration): 5 days. In kind it is cell-based, African green monkey. The method, then:
as §1, §2, §3

The subject of the next data set is ZIKV. The experiment in a line: Post-infection test with ZIKV in Vero cells. In kind it is cell-based, Zika virus. The method, then: We then investigated the activity of compound 4b after ZIKV infection in cells. As already noted in the screening test, 4b reduced ZIKV growth to levels similar to 6MMPr, a positive control previously described by our group. As in the pre-treatment test, four different concentrations were used, with the maximum being CC20 (136.90, 68.45, 34.22 and 17.11 µM). […] It is worth highlighting the constant decrease in the viral titer, even in lower concentrations, while the positive control 6MMPr reduces it only in the highest concentrations.
Statistical analysis compared the concentrations of each compound at each collection time (3 d.p.i. and 5 d.p.i.) with a t-test.
Figure 6 Comparison of anti-ZIKV activity between 6MMPr and 4b after three- and five-days post-infection (d.p.i.). 6MMPr and compound 4b were submitted to a post-infection test when Vero cells was infected with ZIKV at MOI 0.1 for 2 h then treated with compounds. Concentrations used in the test corresponded to CC20 (4b = 136.90 µM; 6MMPr = 60.50 µM), CC20/2 (4b = 68.45 µM; 6MMPr = 30.25 µM), CC20/4 (4b = 34.22 µM; 6MMPr = 15.13 µM) and CC20/8 (4b = 17.11 µM; 6MMPr = 7.56 µM). The experiment was done in triplicates and values are the mean and the SD. Statistical analysis was made between compounds using t-test on GraphPad Prism program. * = significative; ns = not statistically significant for p < 0.05. (a) 3 d.p.i. from both compounds. (b) 5 d.p.i. from both compounds.
96-well plates with 1 × 10^4 cell/well were used in this assay and prepared 24 h previously. Seven serial dilutions of the virus were prepared in DMEM + 2% FBS culture medium. After removing the culture medium from the plate, 50 µL of each dilution was added to the wells in several repetitions. The plate was incubated at 37 °C and 5% atm CO2 for 1 h. After this interval, each well of the plate received an additional 100 µL of DMEM + 2% FBS culture medium. The plate was incubated again, in the same parameters, for 5 days. Some columns of the plate were selected for use as a cell control (culture medium only, no virus). The reading was performed in an inverted optical microscope AE2000, Motic (Motic, Kowloon Bay, Hong Kong) counting positives wells by the presence of cytopathic effect and the determination of the sample title was performed with the aid of the Microsoft Office Excel program (Microsoft® Office, Redmond, WA, USA).
48-well plates with 2.5 × 10^4 cells/well were prepared 24 h previously. A ZIKV solution at MOI 0.1 was inoculated into the wells and the cells incubated at 37 °C and 5% CO2 atmosphere. After 2 h, the culture medium was removed, and the wells were washed with 1X PBS. 2:1 dilution of 4b (136.90 µM, 68.45 µM, 34.22 µM and 17.11 µM) and 6MMPr (60.50 µM, 30.25 µM, 15.13 µM and 7.56 µM) were added in triplicate. The cells were again incubated for 72 h and 120 h. The supernatants from the wells were collected and titrated.

The test system of data set [4] is Vero cells. Details: method as in PMID 28803932. Conditions: ref [17], cited from earlier work.

Take `O=C1c2ccccc2C(=O)N1CCn1cc(-c2ccccc2)nn1` [4-phenyl-1-[2-(phthalimido-2-yl)ethyl]-1-H-1,2,3-triazole]: the cytotoxicity entry in data set [1] is listed as “low cytotoxicity”.

On to `CC(C)(O)c1cn(CN2C(=O)c3ccccc3C2=O)nn1` [Compound 1], for which the CC50 at 5 days in data set [2] was 680 µM. For the same compound, the “CC20 (20% cytotoxic concentration)” value with Vero cells [3] worked out at 177.10 µM.

`O=C1C=C(n2cc(CCO)nn2)C(=O)c2ccccc21` [Compound 2a]: the CC50 at 5 days in data set [2] came to 38 µM. Besides, the “CC20 (20% cytotoxic concentration)” value in the data set with Vero cells [3] is listed as 8.87 µM.

With `O=C1C=C(n2cc(CCCO)nn2)C(=O)c2ccccc21` [Compound 2b], the CC50 at 5 days in data set [2] was 38.8 µM. The “CC20 (20% cytotoxic concentration)” value in the data set on Vero cells [3] stood at 9.89 µM.

On to `O=C1C=C(NCc2cn(CN3C(=O)c4ccccc4C3=O)nn2)C(=O)c2ccccc21` [Compound 3a], for which, in data set [2], the CC50 at 5 days is 470 µM. Further, in the data set with Vero cells [3], the “CC20 (20% cytotoxic concentration)” value is recorded as 55.28 µM.

Turning to `O=C1C=C(NCc2cn(CCN3C(=O)c4ccccc4C3=O)nn2)C(=O)c2ccccc21` [Compound 3b], the CC50 at 5 days in data set [2] was 1190 µM. Also, the “CC20 (20% cytotoxic concentration)” value in the data set on Vero cells [3] was 527.2 µM and 527.20 µM.

As for `O=C1C(Br)=C(NCc2cn(CCCN3C(=O)c4ccccc4C3=O)nn2)C(=O)c2ccccc21` [Compound 4a], in data set [2], the CC50 at 5 days turned out to be 68.8 µM. In the data set on Vero cells [3], the “CC20 (20% cytotoxic concentration)” value is 40.69 µM.

For `O=C1C=C(NCCn2cc(CCCO)nn2)C(=O)c2ccccc21` [Compound 5a, 2-[2-(4-(3-Hydroxypropyl)-1H-1,2,3-triazol-1-yl)]-ethylamino-1,4-naphthoquinone], the melting point lay within 143 to 145 °C. Besides, the CC50 at 5 days in data set [2] is 294 µM. Besides, in the data set with Vero cells [3], the “concentration until which cells remain viable” value is reported as not above 400 µM and the “CC20 (20% cytotoxic concentration)” value is 74.85 µM.

On to `CC(C)(O)c1cn(CCNC2=CC(=O)c3ccccc3C2=O)nn1` [Compound 5b], for which the CC50 at 5 days in data set [2] came to 298 µM. In the data set with Vero cells [3], the “concentration until which cells remain viable” value is listed as not above 400 µM and the “CC20 (20% cytotoxic concentration)” value turned out to be 66.93 µM.

As to `CSc1ncnc2c1ncn2[C@@H]1O[C@H](CO)[C@@H](O)[C@H]1O` [Compound 6MMPr, 6-methylmercaptopurine riboside, reference compound], the “% Viral Inhibition” value is on record as 99.8% in the data set on ZIKV (3 d.p.i., CC20 (4b 136.90 µM; 6MMPr 60.50 µM)); 54.4% in the data set on ZIKV (3 d.p.i., CC20/2 (4b 68.45 µM; 6MMPr 30.25 µM)); 42.7% with ZIKV (3 d.p.i., CC20/4 (4b 34.23 µM; 6MMPr 15.13 µM)); −93.4 * % in the data set with ZIKV (3 d.p.i., CC20/8 (4b 17.11 µM; 6MMPr 7.6 µM), negative = increased virus titer compared to control); 99.7% with ZIKV (5 d.p.i., CC20 (4b 136.90 µM; 6MMPr 60.50 µM)); 96.8% in the data set with ZIKV (5 d.p.i., CC20/2 (4b 68.45 µM; 6MMPr 30.25 µM)). In addition, the “% Viral Inhibition” value in the data set on ZIKV (5 d.p.i., CC20/4 (4b 34.23 µM; 6MMPr 15.13 µM)) was 95.1%; in the data set with ZIKV (5 d.p.i., CC20/8 (4b 17.11 µM; 6MMPr 7.6 µM)), 81.1%; in the data set with ZIKV (post-infection test, Table 4, concentration and time not stated) it was 97.8%. Further, the IC50 in the data set on ZIKV (post-infection test, ZIKV MOI 0.1, Vero cells, read-out: IC50 (50% inhibition concentration, virus replication)) came out at 24.5 µM. Besides, the “effect on growth of the virus (viral titer)” value in the data set with ZIKV (post-infection, four concentrations from CC20 to CC20/8, 3 and 5 d.p.i.) is on record as “prevents the growth of the virus in both cases”. In addition, in the data set with ZIKV (ratio between the CC50 and IC50 values), the “SI (selectivity index)” value was 11.9. Further, in the data set on Vero cells [4] (read-out: CC50 (50% cytotoxic concentration)), the CC50 is 291 µM. Besides, the “CC20 (20% cytotoxic concentration)” value with Vero cells [4] is 60.50 µM and 60.5 µM.

Turning to `CC(=O)OC[C@H]1O[C@H](OCCc2cn(C3=CC(=O)c4ccccc4C3=O)nn2)C=C[C@@H]1OC(C)=O` [Compound 6a], the CC50 at 5 days in data set [2] is 68 µM. Besides, the “CC20 (20% cytotoxic concentration)” value with Vero cells [3] was 39.92 µM.

Turning to `CC(=O)OC[C@H]1O[C@H](OCc2cn(C3=CC(=O)c4ccccc4C3=O)nn2)C=C[C@@H]1OC(C)=O` [Compound 6b], in data set [2], the CC50 at 5 days turned out to be 48.7 µM. For the same compound, the “CC20 (20% cytotoxic concentration)” value in the data set with Vero cells [3] was 21.18 µM.

As for `CC(=O)OC[C@H]1O[C@H](OC(C)(C)c2cn(C3=CC(=O)c4ccccc4C3=O)nn2)C=C[C@@H]1OC(C)=O` [Compound 6c], the CC50 at 5 days in data set [2] was 58.1 µM. In addition, in the data set with Vero cells [3], the “CC20 (20% cytotoxic concentration)” value is listed as 25.73 µM.

On to `CC(=O)OC[C@H]1O[C@H](OCCCc2cn(C3=CC(=O)c4ccccc4C3=O)nn2)C=C[C@@H]1OC(C)=O` [Compound 6d], for which the CC50 at 5 days in data set [2] worked out at 69.5 µM. For the same compound, the “CC20 (20% cytotoxic concentration)” value with Vero cells [3] is 38.61 µM.

In the case of `CC(=O)OCC1OC(n2cc(CNC3=C(Br)C(=O)c4ccccc4C3=O)nn2)C(OC(C)=O)C(OC(C)=O)C1OC(C)=O` (centres unmarked) [Compound 7], in data set [2], the CC50 at 5 days was determined as 334 µM. Also, in the data set with Vero cells [3], the “CC20 (20% cytotoxic concentration)” value was 119.10 µM.
